Data on eight compounds can be found in PubChem BioAssay (NCI).

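Following 48 hours of exposure in 96-well plates, responses at five concentrations were used to interpolate endpoints linearly. GI50 = concentration required for 50% inhibition of growth. TGI denotes the concentration required for complete inhibition of growth.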 Where only a bound is given, the exact number is not on record here.

Among the test systems are NCI-H460 lung; A498 renal; BT-549 breast; HCT-116 colon; K-562 leukemia; SK-OV-3 ovarian; NCI/ADR-RES ovarian; SF-295 CNS; A549 NSCLC; EKVX NSCLC.
Common to all, as to assay: growth of human tumour cells (NCI), 48 h

On to `Nc1c(C(=O)c2cccc(-c3ccc[n+]([O-])c3)c2)cnn1-c1ccc(F)cc1F`, for which the GI50 in the assay on NCI-H460 lung, in the assay on A498 renal, in the assay on BT-549 breast, in the assay on HCT-116 colon, with K-562 leukemia and in the assay with SK-OV-3 ovarian was greater than 25 µM each time. Besides, the GI50 with NCI/ADR-RES ovarian, in the assay on SF-295 CNS and with A549 NSCLC was greater than 25 µM in each case. Moreover, the TGI in the assay with NCI-H460 lung, in the assay on A498 renal, in the assay on BT-549 breast, in the assay with HCT-116 colon, in the assay with K-562 leukemia and in the assay on SK-OV-3 ovarian was greater than 25 µM throughout. The TGI in the assay on NCI/ADR-RES ovarian, with SF-295 CNS and with A549 NSCLC was greater than 25 µM each time.
With `c1cc(C2CCCCC2)ccc1OCCCCCCN1CCNCC1`, the GI50 in the assay on NCI-H460 lung was 1.84 µM; in the assay on A498 renal, 5.06 µM; in the assay on K-562 leukemia, 1.46 µM; in the assay on EKVX NSCLC, 5.76 µM; in the assay on SK-OV-3 ovarian, 4.16 µM; in the assay on NCI/ADR-RES ovarian it was 2.36 µM. Also, the GI50 in the assay on SF-295 CNS and in the assay on A549 NSCLC was 1.92 µM in each case. The TGI in the assay with NCI-H460 lung was 3.43 µM; with A498 renal, 26.5 µM; with K-562 leukemia, 3.11 µM; with EKVX NSCLC it was 47.3 µM; with SK-OV-3 ovarian, 15.2 µM; in the assay on NCI/ADR-RES ovarian, 5.14 µM. In addition, the TGI turned out to be 3.77 µM in the assay with SF-295 CNS and 3.65 µM in the assay on A549 NSCLC.
For the compound `CCOC(=O)c1cc2c(n1Cc1cc(OC)cc(OC)c1)-c1oncc1CCC2`, the GI50 in the assay with NCI-H460 lung is 0.071 µM; with A498 renal, 0.0469 µM; with BT-549 breast it was 0.89 µM; with HCT-116 colon, 0.0588 µM; in the assay with K-562 leukemia, 0.0575 µM; in the assay with SK-OV-3 ovarian, 0.108 µM. Moreover, the GI50 in the assay with NCI/ADR-RES ovarian is 0.0603 µM; in the assay with SF-295 CNS, 0.0291 µM; in the assay on A549 NSCLC, 0.112 µM. The TGI in the assay on NCI-H460 lung is greater than 100 µM; in the assay with A498 renal, 0.295 µM; with BT-549 breast, greater than 100 µM; with HCT-116 colon it was greater than 100 µM; in the assay with K-562 leukemia, greater than 100 µM; in the assay on SK-OV-3 ovarian it was greater than 100 µM. In addition, the figures for the TGI with SF-295 CNS and in the assay with A549 NSCLC were 0.14 µM and greater than 100 µM, respectively.
As for `COc1cc2c(c(OC)c1OC)-c1ccc(NNC(=S)N(Cc3cccc(C[N+](Cc4cccc(CNC56CC7CC(CC(C7)C5)C6)c4)(Cc4cccc(CNC56CC7CC(CC(C7)C5)C6)c4)Cc4cccc(CN(C(=S)NNc5ccc6c(cc5=O)[C@@H](NC(C)=O)CCc5cc(OC)c(OC)c(OC)c5-6)C56CC7CC(CC(C7)C5)C6)c4)c3)C34CC5CC(CC(C5)C3)C4)c(=O)cc1[C@@H](NC(C)=O)CC2` (some centres not stated), the GI50 was 1.22 µM in the assay on NCI-H460 lung; 1.07 µM in the assay on A498 renal; 1.55 µM with BT-549 breast; 0.896 µM in the assay on HCT-116 colon; 2.68 µM with EKVX NSCLC; 3 µM in the assay with SK-OV-3 ovarian. Also, the GI50 with NCI/ADR-RES ovarian was 5.43 µM; in the assay on SF-295 CNS, 1.53 µM; in the assay with A549 NSCLC, 1.61 µM. Besides, the TGI was found to be 3.79 µM in the assay on NCI-H460 lung; 3.28 µM in the assay on A498 renal; 5.89 µM with BT-549 breast; 3.07 µM in the assay with HCT-116 colon; 8.46 µM in the assay with EKVX NSCLC; 7.51 µM in the assay with SK-OV-3 ovarian. In addition, the TGI in the assay on NCI/ADR-RES ovarian was 12.5 µM; with SF-295 CNS, 5.92 µM; with A549 NSCLC, 6 µM.
In the case of `COc1ccc(Nc2ccnc(NCCNc3ccnc4cc(Cl)ccc34)n2)cc1`, the GI50 was 2.36 µM in the assay with NCI-H460 lung; 0.874 µM with A498 renal; 1.86 µM with BT-549 breast; 0.533 µM with HCT-116 colon; 1.32 µM with K-562 leukemia; 7.21 µM with SK-OV-3 ovarian. Moreover, the values for the GI50 in the assay with NCI/ADR-RES ovarian, with SF-295 CNS and in the assay on A549 NSCLC were 3.9 µM, 1.03 µM and 3.67 µM, respectively. Besides, the TGI was 12.8 µM with NCI-H460 lung; 4.92 µM with A498 renal; 7.01 µM in the assay with BT-549 breast; 3.78 µM in the assay with HCT-116 colon; 4.75 µM in the assay with K-562 leukemia; 20.5 µM in the assay on SK-OV-3 ovarian. Besides, the TGI amounted to 16.9 µM with NCI/ADR-RES ovarian, 2.78 µM in the assay with SF-295 CNS and 13.7 µM with A549 NSCLC.
As for `COc1cc([C@@H]2c3cc4c(cc3C(Br)[C@H]3COC(=O)[C@H]23)OCO4)cc(OC)c1OC` (some centres not stated), the GI50 was 0.204 µM with NCI-H460 lung; 0.0257 µM in the assay on A498 renal; 0.254 µM in the assay on BT-549 breast; 0.207 µM in the assay on HCT-116 colon; 0.185 µM with K-562 leukemia; 0.533 µM with EKVX NSCLC. Besides, the GI50 with SK-OV-3 ovarian was 0.312 µM; in the assay on SF-295 CNS, 0.0859 µM; in the assay with A549 NSCLC, 0.313 µM. In addition, the TGI is 0.547 µM in the assay with NCI-H460 lung; 0.177 µM in the assay on A498 renal; 0.784 µM in the assay with HCT-116 colon; greater than 100 µM in the assay on K-562 leukemia; greater than 100 µM in the assay with EKVX NSCLC; greater than 100 µM in the assay with SK-OV-3 ovarian. Also, in the assay with A549 NSCLC, the TGI was greater than 100 µM.
As to `Cc1ccccc1S(=O)(=O)N1[C@H](c2ccc(Cl)cc2)C(C(=O)N[C@@H](Cc2ccccc2)C(N)=O)=C[C@@H]1C(C)(C)C`, the GI50 in the assay with NCI-H460 lung was 4.7 µM; in the assay on A498 renal, 7.3 µM; in the assay on BT-549 breast it was 8.63 µM; with HCT-116 colon it was 2.9 µM; in the assay with K-562 leukemia it was 7.1 µM; in the assay with SK-OV-3 ovarian it was 8.5 µM. Besides, the GI50 is 6.69 µM in the assay with NCI/ADR-RES ovarian, 2.8 µM in the assay with SF-295 CNS and 3.43 µM with A549 NSCLC. Further, the TGI in the assay with NCI-H460 lung worked out at 14.2 µM; in the assay on A498 renal, 14.4 µM; with BT-549 breast, 20.9 µM; in the assay on HCT-116 colon, 15.1 µM; in the assay on K-562 leukemia, 35.4 µM; in the assay on SK-OV-3 ovarian, 21.7 µM. Besides, the TGI in the assay on NCI/ADR-RES ovarian was 21 µM; in the assay on SF-295 CNS, 10 µM; in the assay with A549 NSCLC, 13.1 µM.
Regarding `O=[N+]([O-])c1cc(O)c(O)cc1-c1cn2ccsc2n1`, the GI50 in the assay on NCI-H460 lung is 46.9 µM; with A498 renal, 25.3 µM; in the assay with HCT-116 colon, 31.1 µM; with EKVX NSCLC, greater than 100 µM; with SK-OV-3 ovarian it was greater than 100 µM; in the assay with NCI/ADR-RES ovarian it was 50.6 µM. Besides, the GI50 in the assay with SF-295 CNS is 31.2 µM; in the assay with A549 NSCLC it was 41.3 µM. The TGI with NCI-H460 lung is greater than 100 µM; in the assay with A498 renal, 62.3 µM; in the assay on HCT-116 colon, greater than 100 µM; in the assay on EKVX NSCLC it was greater than 100 µM; with SK-OV-3 ovarian, greater than 100 µM; in the assay with NCI/ADR-RES ovarian, greater than 100 µM. The TGI with SF-295 CNS was 91.3 µM; in the assay on A549 NSCLC, greater than 100 µM.
